Test results published in ChEMBL document CHEMBL1201862, “PubChem BioAssay data set” (2004).
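Cultured in 96-well plates, cells were exposed to test compound for 48 hours across five concentrations. GI50: concentration for 50% inhibition of growth.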 Activity calls are given as the source filed them. No stated cut-off is given here; in the data, active = GI50 up to about 1.1 µM and inactive = higher.

Columns and labels:
Experiment in all cases: NCI anticancer screen, dose series, 48 h
NCI-H522 = system: NCI-H522
HOP-62 = system: HOP-62
CAKI-1 = system: CAKI-1
HOP-92 = system: HOP-92
HCT-15 = system: HCT-15
SN12C = system: SN12C
KM12 = system: KM12
NCI/ADR-RES = system: NCI/ADR-RES
786-0 = system: 786-0
OVCAR-5 = system: OVCAR-5
MCF7 = system: MCF7
SF-539 = system: SF-539
SNB-75 = system: SNB-75
MDA-MB-435 = system: MDA-MB-435
SK-MEL-28 = system: SK-MEL-28
LOX IMVI = system: LOX IMVI
M14 = system: M14
UACC-62 = system: UACC-62
NCI-H460 = system: NCI-H460
HT-29 = system: HT-29

Structure (SMILES) | GI50 (NCI-H522) | GI50 (HOP-62) | GI50 (CAKI-1) | GI50 (HOP-92) | GI50 (HCT-15) [µM] | GI50 (SN12C) | GI50 (KM12) | GI50 (NCI/ADR-RES) | GI50 (786-0) | GI50 (OVCAR-5) | GI50 (MCF7) | GI50 (SF-539) | GI50 (SNB-75) | GI50 (MDA-MB-435) | GI50 (SK-MEL-28) | GI50 (LOX IMVI) | GI50 (M14) | GI50 (UACC-62) | GI50 (NCI-H460) | GI50 (HT-29)
CC1=NN(C(=O)c2ccc(Cl)cc2)C(=O)C1/N=N/c1ccc(S(=O)(=O)Nc2ncccn2)cc1 (stereo not given) | > 100 µM (inactive) | > 100 µM (inactive) | > 100 µM (inactive) | < 0.01 µM (active) | > 100 | > 100 µM (inactive) | > 100 µM (inactive) | > 100 µM (inactive) | > 100 µM (inactive) | > 100 µM (inactive) | > 100 µM (inactive) | > 100 µM (inactive) | > 100 µM (inactive) | > 100 µM (inactive) | > 100 µM (inactive) | > 100 µM (inactive) | > 100 µM (inactive) | > 100 µM (inactive) | > 100 µM (inactive) | > 100 µM (inactive)
COc1ccc2[nH]c(Cl)c(/C=C3/C(=O)Nc4cc(C)c(OC)cc43)c2c1 | 2.9 µM (inactive) | 5.48 µM (inactive) | 7.35 µM (inactive) | 11.7 µM (inactive) | 2.91 | 7.43 µM (inactive) | 3.35 µM (inactive) | 2.44 µM (inactive) | 5.68 µM (inactive) | 6.93 µM (inactive) | 3.8 µM (inactive) | 0.723 µM (active) | 10.8 µM (inactive) | 1.23 µM (inactive) | 9.38 µM (inactive) | 5.3 µM (inactive) | 3.98 µM (inactive) | 3.55 µM (inactive) | 3.36 µM (inactive) | 4.23 µM (inactive)
